Measured values published in PMC9519446, “Discovery of an Orally Active Benzoxaborole Prodrug Effective in the Treatment of Chagas Disease in Non-human Primates” (Nature microbiology, 2022).
Values joined by “and” are separate entries in the source; they are usually repeats but may differ in a detail not shown here. Equal values may be shown once. “Also recorded” adds a separate entry of the source. Marks after values point to notes of the source that are not given here.

Tests used:
[1] = tested on: metallocarboxypeptidase 2 disrupted T. cruzi intracellular amastigote; test: Intracellular amastigote assay with metallocarboxypeptidase 2 (TcCLB.504045.60) disrupted T. cruzi; type: cell-based, Trypanosoma cruzi; details: Fig. S1
From the text: activity of AN14353 on intracellular amastigote (b). Representative microphotographs of assays repeated at least three times are shown. Data are presented as mean values +/- SEM; n= 3 […]
(1 picture or pasted object on this page, not shown here)

[2] = tested on: Luciferase-expressing T. cruzi (Brazil strain); test: In vivo killing time assay (footpad bioluminescence); parameters: species or system C57BL/6 mice; details: for Bioluminiscence signal of the feet of mice infected with Luciferase expresssing T. cruzi: individual feet
Protocol: C57BL/6 mice were infected with 2.5x10^5 Luciferase-expressing T. cruzi (Brazil strain) in the foot pads, and two days later one oral dose of AN14353 (25 mg/kg) was administered. The bioluminescent signal in the feet after i.p. injection of D-luciferin (PerkinElmer; 250mg/kg) was measured in a Lumina II IVIS imager (PerkinElmer).

[3] = tested on: tdTomato expressing T. cruzi (CL strain); test: Rapid in vivo assay: footpad infection, single oral dose, fluorescence imaging 2 and 4 dpi (proliferation index); parameters: species or system C57BL/6 mice; details: for Fluorescence intensity of the feet of mice infected with tdTomato-expressing T. cruzi: individual feet
Protocol: Fluorescent intensity of the feet was measured at 2 dpi before compound administration and at 4 dpi in the Maestro in vivo imaging system equipped with the software Maestro 2.1.0 (CRi) as previously described. The proliferation index was estimated as PI=[(T4d – T2d)/(mUnt4d-mUnt2d)]*100; where T4d and T2d are the fluorescence intensity of the feet of the treated animals at days 4 and 2 post-infection respectively; mUnt4d and mUnt2d are the average fluorescence intensity of the feet of the untreated animals at 4 and 2 dpi respectively.

[4] = tested on: TcCBP KO T. cruzi extracellular amastigotes; test: Extracellular amastigote assay with serine carboxypeptidase knockout T. cruzi; type: cell-based, Trypanosoma cruzi; details: for % of maximum: Fig 2.c, TcCBP KO
Protocol: (§1) The in vitro anti-T. cruzi amastiogote activity assay was performed and optimized based on the protocol described previously. The change in tdTomato fluorescence intensity was determined as a measurement of growth over 72 hours of culture. For assaying drug effects on extracellular amastigotes, trypomastigotes were collected from infected Vero cell cultures and converted in acidic media as previously described. Amastigotes (50,000/well) were incubated with 2-fold serial dilutions of compounds for 48 hours. The ATP production was used as an indication of growth in this case, and was measured by ATPlite Luminescence ATP Detection Assay System (PerkinElmer). Both fluorescence and luminescence were read using a BioTek Synergy Hybrid Multi-Mode reader equipped with the software Gene5 v 2.0 (BioTek). The dose-response curve was generated by […] analysis with GraphPad Prism v9.4.0 (GraphPad Software).
(§2) The CBPs knockout was produced using ribonucleoprotein (RNP) complexes as previously described. Briefly, Brazil tdTomato strain epimastigotes were electroporated with RNP complexes containing SaCas9 and an sgRNA targeting CBP gene TcBrA4_0048170, plus a repair template containing stop codons in all three reading frames and the M13 sequence for use as a PCR anchor. The sgRNA targeted the ‘[…]” sequence. After 2 days of recovery, single-cell clones were derived by depositing epimastigotes into a 96-well plate at a density of 0.5 cell/well by using a MoFlo Astrios EQ cell sorter (Beckman Coulter). DNA isolation was performed for clones, and primer pair of 5’-[…]-3’ and 5’- […] -3’ was used for amplifying the wild type allele, while primer pair of M13-F: 5’- […] -3’ and 5’- […] -3’ was used for amplifying the mutant allele.

[5] = tested on: TcCBP KO T. cruzi intracellular amastigotes; test: microbe, parasite or virus in culture; type: cell-based; details: Trypanosoma cruzi, read-out: TcCBP KO IC50
Protocol: as §1, §2

[6] = Plasma protein binding (cyno); type: in vitro ADME
[7] = NHP necropsy histology (lesions that could be consistent with Chagas); type: in vivo, rhesus macaques (Macaca mulatta); parameters: key to Skel mm, lesion grade / Small Int, lesion grade / Large Int, lesion grade / Heart, lesion grade: 0 (unlikely Chagas-related pathology); 5 (likely Chagas-related pathology); details: individual treated macaques T1-T9 at necropsy
Protocol: Under light-anesthesia/sedation, peripheral blood samples were collected from each animal prior to treatment and at 7 time points following. Blood analysis (CBC and serum chemistry assays) and physical exams to evaluate the health of the study animals were performed on each animal prior to the beginning of the study and also at three time points during the treatment protocol (see Supplementary data).

Cc1c(C(=O)NC(C(=O)OCc2ccc(F)c(F)c2)C(C)C)ccc2c1B(O)OC2 (stereo not shown) [AN14353]
impact of metallocarboxypeptidase 2 disruption on activity [1]: Lack of impact | Bioluminiscence signal of the feet of mice infected with Luciferase expresssing T. cruzi ([2]; dpi 0): 38900 and 50000 and 58900 and 53200 and 27400 and 49600 | Bioluminiscence signal of the feet of mice infected with Luciferase expresssing T. cruzi ([2]; dpi 6): 16800 and 26800 and 41700 and 19800 and 27400 and 55100 | Bioluminiscence signal of the feet of mice infected with Luciferase expresssing T. cruzi ([2]; dpi 12): 53200 and 26000 and 25400 and 27200 and 20400 and 32200 | Bioluminiscence signal of the feet of mice infected with Luciferase expresssing T. cruzi ([2]; dpi 24): 28700 and 38600 and 17100 and 17600 and 12200 and 16200 | Bioluminiscence signal of the feet of mice infected with Luciferase expresssing T. cruzi ([2]; dpi 30): 38600 and 26900 and 29300 and 28500 and 15800 and 33500 | Bioluminiscence signal of the feet of mice infected with Luciferase expresssing T. cruzi ([2]; dpi 48): 13500 and 15700 and 12600 and 12800 and 9070 and 11900 | Bioluminiscence signal of the feet of mice infected with Luciferase expresssing T. cruzi ([2]; dpi 72): 90400 and 76200 and 47100 and 14600 and 38700 and 41000 | in vivo trypanocidal activity (killing time) ([2]; single oral dose 25 mg/kg): rapid in vivo trypanocidal activity | Fluorescence intensity of the feet of mice infected with tdTomato-expressing T. cruzi ([3]; 0.8 mg/kg): 1665.8 and 1203.3 and 1103.9 and 2856.3 and 2240.9 and 2906.1 and 796.9 and 2912.6 and 793.9 and 2840.0 | Fluorescence intensity of the feet of mice infected with tdTomato-expressing T. cruzi ([3]; 3.2 mg/kg): 1183.1 and 248.0 and 552.8 and 1244.2 and 574.1 and 807.8 and 439.5 and 1642.2 and 2070.5 and 1949.8 | Fluorescence intensity of the feet of mice infected with tdTomato-expressing T. cruzi ([3]; 12.5 mg/kg): 556.7 and -13.5 and -118.4 and 985.8 and 248.2 and 312.2 and -170.7 and 977.4 and 456.5 and 1102.8 | Fluorescence intensity of the feet of mice infected with tdTomato-expressing T. cruzi ([3]; 25 mg/kg): 916.6 and 1396.9 and 669.0 and 929.6 and 109.0 and 109.7 and 3.9 and 55.6 and 1126.1 and 448.9 | Fluorescence intensity of the feet of mice infected with tdTomato-expressing T. cruzi ([3]; 40 mg/kg): 248.7 and 316.0 and 101.3 and 60.4 and 606.3 and -64.8 and 95.6 and 476.3 and 738.5 and 600.3 | Parasite proliferation index of footpads infected with tdTomato-expressing T. cruzi ([3]; Fig. 3a, individual footpads): 1.9 and 17.1 and 45.9 and 24.7 and 19.1 and 29.9 and -18.9 and -3.0 and 31.4 and 4.1 | % of maximum ([4]; 0.00): 11% and 2% and 8% | % of maximum ([4]; 0.30): 1% and -4% and 3% | % of maximum ([4]; -0.30): 1% and 9% | % of maximum ([4]; -0.60): 14% and 11% and 5% | % of maximum ([4]; -0.90): 20% and 18% and 16% | % of maximum ([4]; -1.20): 31% and 40% and 33% | % of maximum ([4]; -1.51): 54% and 51% and 59% | % of maximum ([4]; -1.81): 101% and 104% and 95% | % of maximum ([4]; -2.11): 106% and 104% and 96% | % of maximum ([4]; -2.41): 101% and 104% | % of maximum ([4]; -2.71): 100% and 102% | IC50 ([4]; Trypanosoma cruzi, read-out: TcCBP KO IC50): 0.0444 µM

Cc1c(C(=O)N[C@H](C(=O)OCC2CCOCC2)C(C)C)ccc2c1B(O)OC2 [AN15368]
IC50 [5]: 2.5 µM | Funbound (cyno) [6]: 21% | Heart, lesion grade [7]: 1* and 0 and 2* and 3* | Histology Comments [7]: Heart- mutifocal areas of mild epicarditis; also recorded: No overt pathology identified; also recorded: Sk mm- mild focal area of neutrophilic and lymphocytic inflammation Small int- prominent villar tip necrosis/apoptosis, multifocal Lrg Int- focal area of mild lymphohistiocytic inflammation in muscularis; also recorded: Heart- Multifocal areas of mild lymphohistiocytic inflammation/myofiber loss; regional area of mild-moderate myocardial fibrosis; intravascular bacterial or fungal thrombus. Heart lesions are likely related to thromus/infection but Chagas can't be ruled out; also recorded: Sk mm- Multifocal areas of mild lymphohistiocytic inflammation and myofiber loss; Lrg Int- Mild diffsue lymphoplasmactic colitis; focal area of mild lymphohistiocytic inflammation in muscularis; also recorded: Heart - multiple foci of mild lymphoctic inflammation Sk mm-one section has acute myofiber degeneration (ketamine artifact) Small int- prominent villar tip necrosis/apoptosis, multifocal; also recorded: Heart- multifocal areas of mild to moderate myocardial, subepicardial, and perivascular lymphohistiocytic and plasmacytic inflammation; regional area of mild-moderate myocardial fibrosis | Large Int, lesion grade [7]: 0 and 1* | Skel mm, lesion grade [7]: 0 and 1* and 2* | Small Int, lesion grade [7]: 0
